The source of these data is US20240208998A1, “COMPOUNDS FOR USE IN THE TREATMENT OF HYPERPROLIFERATIVE DISORDERS” (FUNDACIÓ PRIVADA INSTITUT D'INVESTIGACIÓ ONCOLÓGICA DE VALL …, priority 2021, published 2024).

What all share (type): cell-based
Assay [1] deals with Hop62 (lung). In words: Antiproliferative activity on other tumour cell lines (CellTiter-Glo): Hop62. Particulars: Homo sapiens, HOP-62; Hop62, 72 h of treatment. As for the experimental part: (§1) Other human adherent cancer cell lines were cultured in their corresponding cell medium (as specified in Table 4) supplemented with 10% FBS (v/v) and 1% P/S (v/v). Twenty-four hours prior to treatment with the compounds to be tested (Examples 1, 12 and 21), the cells were seeded in 96-well plates at different densities depending of the cell line (as specified in Table 4).
(§2) Depending on the cell line, a 50, 125 or 250 μM solution of the compounds of examples 1, 12 and 21 were prepared in complete medium, and then serially diluted (1:2) (Table 5). A solution of complete medium with DMSO was used as a vehicle control.
(§3) Fifty microliters of each serially diluted compound solution was added by medium replacement in two wells (by duplicate). After 48 h of treatment, 50 μL of fresh 2X serially diluted compound solution was added to the corresponding wells of the plate (100 μL of final volume/well). After twenty-four additional hours (a total of 72 h of treatment), an equal volume (100 μL) of CellTiter-Glo Reagent (Promega) was added to each well, plates were shaken during 2 min and incubated at rt for 10 min. Luminescence was recorded using a Spark multimode microplate reader and an integration time of 1 s per well.
In general terms: In ATP-based viability assays light output follows the ATP content of the culture.

For assay [2], the system named is LN229 (glioblastoma). Nature of the assay: Antiproliferative activity on other tumour cell lines (CellTiter-Glo): LN229. Particulars: Homo sapiens, LN-229; LN229, 72 h of treatment. As for the experimental part:
as §1, §2, §3

For assay [3], the system named is A375 (melanoma). Nature of the assay: Antiproliferative activity on other tumour cell lines (CellTiter-Glo): A375. Particulars: Homo sapiens, A-375; A375, 72 h of treatment. As for the experimental part:
as §1, §2, §3

In assay [4] the test system is T98G (glioblastoma). Nature of the assay: Antiproliferative activity on other tumour cell lines (CellTiter-Glo): T98G. Particulars: Homo sapiens, 72 h of treatment. As for the experimental part:
as §1, §2, §3

The term EC50 denotes the concentration needed to bring the measured effect to its halfway point. The low end stands for a more potent agent, the high end for a less potent agent. For `Cc1[nH]c2ccccc2c1-c1csc(NC(=O)Cc2c[nH]c3ccc(F)cc23)n1` [Example 12, 2-(5-fluoro-1H-indol-3-yl)-N-[4-(2-methyl-1H-indol-3-yl)thiazol-2-yl]acetamide], the EC50 in assay [1] was determined as 12.1 µM; in assay [2], 5.9 µM; in assay [3], 2.7 µM; in assay [4], 23.1 µM.

On to `Cc1[nH]c2ccccc2c1-c1csc(NC(=O)Cc2c[nH]c3ccc(O)cc23)n1` [Example 21, 2-(5-hydroxy-1H-indol-3-yl)-N-[4-(2-methyl-1H-indol-3-yl)thiazol-2-yl]acetamide], for which the EC50 in assay [1] turned out to be 81.6 µM; in assay [2], 3.3 µM; in assay [3], 1.1 µM; in assay [4], 11.4 µM.
